Measurements as given in patent US20130143902A1, “COMPOSITIONS AND METHODS OF TREATING A PROLIFERATIVE DISEASE WITH A QUINAZOLINONE DERIVATIVE” (GILEAD CALISTOGA LLC, priority 2011, published 2013).
Where “and” joins values, the source holds several entries; their conditions need not be identical. Identical values can stand only once.

Legend:
[1] = Dog PK; format: in vivo; conditions: plasma
Excerpt: The pharmacokinetics of Compound A in mouse and dogs were also examined. […] The results of Tmax (time of maximum observed concentration), Cmax (maximum concentration in plasma measured), AUC (area under the curve for plasma concentration versus time), Cl (total body clearance), and Vz (volume of distribution) were summarized in Table 4. As used herein, the mark ‘-’ represents data not relevant. AUC is shown as the unit of ng*h/mL (ng=nanograms, h=hour, mL=milliliter); ng are multiplied by h, and the value is divided by the volume in mL.

[2] = system: KM-12; assay: pAkt pathway inhibition, KM-12; format: cell-based; conditions: Homo sapiens, KM12; KM-12, Colon
[3] = target: T1, PI3K p110β (Mus musculus, UniProt Q8BTI9); assay: Cellular p110β signaling: LPA-stimulated MEFs, pAkt Western blot; format: cell-based, murine; conditions: EC50 p110β, cellular assay
T1 construct: endogenous in cells; host or cells: murine embryo fibroblasts (MEFs)
T1 sequence (Q8BTI9 whole entry): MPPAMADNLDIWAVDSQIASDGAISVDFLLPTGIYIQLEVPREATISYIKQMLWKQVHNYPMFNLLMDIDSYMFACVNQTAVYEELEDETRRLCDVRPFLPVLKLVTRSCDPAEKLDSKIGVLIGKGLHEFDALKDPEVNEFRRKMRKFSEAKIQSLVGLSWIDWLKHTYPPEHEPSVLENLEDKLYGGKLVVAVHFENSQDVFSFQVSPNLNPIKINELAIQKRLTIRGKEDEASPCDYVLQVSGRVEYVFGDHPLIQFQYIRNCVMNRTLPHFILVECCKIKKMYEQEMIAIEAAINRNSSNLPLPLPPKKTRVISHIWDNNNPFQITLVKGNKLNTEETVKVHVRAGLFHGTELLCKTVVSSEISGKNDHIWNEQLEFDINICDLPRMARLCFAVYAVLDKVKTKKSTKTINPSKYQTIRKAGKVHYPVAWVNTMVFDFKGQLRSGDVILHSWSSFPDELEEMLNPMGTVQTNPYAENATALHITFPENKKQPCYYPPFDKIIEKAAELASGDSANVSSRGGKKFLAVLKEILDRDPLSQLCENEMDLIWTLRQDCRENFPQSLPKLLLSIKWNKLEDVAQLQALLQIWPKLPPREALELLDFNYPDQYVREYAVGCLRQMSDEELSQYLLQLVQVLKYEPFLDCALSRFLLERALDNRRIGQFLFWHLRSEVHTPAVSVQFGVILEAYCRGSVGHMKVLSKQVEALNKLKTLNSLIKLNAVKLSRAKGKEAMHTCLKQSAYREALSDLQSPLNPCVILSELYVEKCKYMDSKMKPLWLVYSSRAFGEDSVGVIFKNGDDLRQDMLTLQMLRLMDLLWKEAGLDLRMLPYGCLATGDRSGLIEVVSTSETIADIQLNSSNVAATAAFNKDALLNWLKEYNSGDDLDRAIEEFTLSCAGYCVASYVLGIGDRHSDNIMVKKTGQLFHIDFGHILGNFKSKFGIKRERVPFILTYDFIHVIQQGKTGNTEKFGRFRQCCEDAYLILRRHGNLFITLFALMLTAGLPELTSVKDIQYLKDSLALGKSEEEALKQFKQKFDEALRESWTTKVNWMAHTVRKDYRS
T1 sequence (P26450 whole entry partner): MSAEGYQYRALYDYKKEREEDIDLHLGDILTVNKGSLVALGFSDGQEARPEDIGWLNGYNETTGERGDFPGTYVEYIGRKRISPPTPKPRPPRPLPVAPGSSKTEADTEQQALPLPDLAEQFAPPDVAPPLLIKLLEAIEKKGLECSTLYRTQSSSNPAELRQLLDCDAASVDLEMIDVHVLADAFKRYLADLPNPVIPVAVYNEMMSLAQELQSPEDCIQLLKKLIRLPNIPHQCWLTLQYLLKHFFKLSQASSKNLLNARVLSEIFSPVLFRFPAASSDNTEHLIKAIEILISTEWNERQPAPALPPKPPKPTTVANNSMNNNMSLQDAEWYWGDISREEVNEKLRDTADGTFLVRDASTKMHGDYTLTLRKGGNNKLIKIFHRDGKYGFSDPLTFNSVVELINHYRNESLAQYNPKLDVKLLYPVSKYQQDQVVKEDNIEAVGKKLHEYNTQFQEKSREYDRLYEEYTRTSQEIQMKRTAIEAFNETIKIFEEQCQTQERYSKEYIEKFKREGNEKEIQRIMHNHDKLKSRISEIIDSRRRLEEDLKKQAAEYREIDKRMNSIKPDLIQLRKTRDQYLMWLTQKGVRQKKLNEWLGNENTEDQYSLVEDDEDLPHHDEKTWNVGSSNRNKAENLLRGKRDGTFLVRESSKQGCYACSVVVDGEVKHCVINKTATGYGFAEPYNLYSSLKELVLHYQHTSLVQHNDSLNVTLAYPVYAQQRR
Procedure: To analyze PI3K p110α and p110β signaling, murine embryo fibroblast (MEFs) were removed from FBS and starved for 2 hours followed by stimulation with 10 ng/mL of PDGF (Cell Signaling Technologies, Danvers, Mass.) or 10 μM of LPA (Echelon, Salt Lake City, Utah) for 10 minutes at 37° C., respectively. After washing once in cold phosphate-buffered saline (PBS), the cell pellet was resuspended in 1× cell lysis buffer (Cell Signaling Technologies) supplemented with mini protease inhibitor mix (Roche, Indianapolis, Ind.), phosphate inhibitor cocktail set I and II (Calbiochem, San Diego, Calif.) for 15 minutes on ice. Whole-cell lysates were obtained by centrifugation at 16,000 g for 10 minutes at 4° C., and the soluble protein was analyzed by Western blotting for Akt and pAkt levels. To analyze PI3K p110δ and p110γ signaling, basophil activation was measured in isolated PBMC or whole blood using the Flow2 CAST kit according to the manufacture's standardized methods (Buhlman Laboratories AG, Switzerland). Briefly, p110δ was activated with anti-FCεRI and p110γ was activated with fMLP (2 μM) in the absence or presence of compounds. To monitor the basophil cell population and cellular activation, anti-CD63-FITC and anti-CCR3-PE antibodies were added to each sample. Cells were fixed and analyzed on a FC500 MPL flow cytometer (Beckman Coulter, Brea, Calif.).

[4] = system: U87MG; assay: Viability (AlamarBlue), U87MG; format: cell-based; conditions: Homo sapiens, U-87 MG, Glioma
Procedure: (§1) For primary T-ALL samples, cell viability was determined using the BD Cell Viability kit (BD Biosciences) and fluorescent counting beads as previously described in Armstrong, F. et al., NOTCH is a key regulator of human T-cell acute leukemia initiating cell activity, Blood 113, 1730-1740 (2009). Cells were plated with MS5-DL1 stroma cells. After 72 hours following treatment, cells were harvested and stained with an APC-conjugated anti-human CD45 according to the manufacturer's instructions. For solid tumor cell lines, cellular viability was determined using the AlamarBlue kit (Invitrogen). About 10,000 cells in 100 μL of media containing 10% FBS were aliquoted into individual wells of a 96-well plate and treated with vehicle (DMSO) or compound in triplicate for 24 hours. Ten μL of AlamarBlue reagent was added to each well and incubated for 4 hours at 37° C. with 5% CO2. Fluorescence was measured with an excitation wavelength at 530 to 560 nm and emission wavelength at 590 nm using Spectramax M5 plate reader (Molecular Devices, Sunnyvale, Calif.).

[5] = system: PTEN null T-ALL; assay: Diseased Lck/PTEN^fl/fl mice with PTEN null T-ALL; format: in vivo; conditions: 30 mg/kg BID; for leukemia cells: about 125 million at Day 0
Procedure: Mouse whole blood was incubated with appropriate antibodies and processed using the BD Bioscience BD FACS Lysing Solution according to the manufacturer's instructions. Immediately after lysis, cells were permeabilized with 0.025% Tween-20 in lysing solution for 15 minutes, then incubated with Ki67 antibodies. Single cell suspensions of thymocytes were isolated and stained with the appropriate antibodies as described in Swat, W. et al., Essential role of PI3 Kdelta and PI3 Kgamma in thymocyte survival, Blood 107, 2415-2422 (2006).
All mice were kept in specific pathogen-free facility at Columbia University Medical Center. All procedures were performed in accordance with the guidelines of the Institutional Animal Care and Use Committee. Lck-cre, NOD.Cg-Prkdc^scid Il2rg^tmlWjl/Sz and Gt(ROSA)26Sor^tml(Luc)Kael/J mice were obtained from the Jackson Laboratory. Mice deficient for PTEN in the T-cell lineage were generated by crossing Lck-cre with floxed PTEN. P110γ^−/− and p110δ^−/− mice as described in Swat, W. et al., Essential role of PI3 Kdelta and PI3 Kgamma in thymocyte survival, Blood 107, 2415-2422 (2006). The animals were intercrossed with Lck-cre/PTEN^fl/fl animals to generate mice homozygous mutant for either p110γ or p110δ and PTEN or homozygous mutant for p110γ, 110δ, and PTEN.
Lck/PTEN^fl/fl mice were crossed with the mice having a luciferase cDNA, preceded by a LoxP-stop-LoxP cassette was introduced into the ubiquitously expressed ROSA26 locus. […] The results are consistent with the reduction in whole blood cells and CD4 single positive population of tumor cells.
Lck/PTEN^fl/fl mice having T-ALL were administered with Compound B at an oral dose of 10 mg/kg every 8 hours or DMSO vehicle for a period of 7 days. […] Compound B extended the median survival to 45 days compared to 7.5 days for the vehicle group (data not shown).
Diseased Lck/PTEN^fl/fl mice (i.e. Lck/PTEN^fl/fl mice diagnosed with T-ALL) were treated with Compounds B for a period of 7 days. Mice were examined for sequential blood counts, peripheral smears, and flow cytometric analyses. […] Forward scatter (FSC) and Ki67 staining were indicators of cell size and proliferation, respectively; and apoptosis was detected by assessing the […] population after PI staining.
PTEN^fl/fl mice were crossed with the mice having a luciferase cDNA, preceded by a LoxP-stop-LoxP cassette was introduced into the ubiquitously expressed ROSA26 locus. Progeny were then crossed with Lck-cre transgenics to delete PTEN in T-cell progenitors and induce expression of luciferase. Imaging on T-ALL tumor bearing mice was performed at Day 0 and 4 after treatment of Compound B or vehicle.

[6] = system: SF-295; assay: pAkt pathway inhibition, SF-295; format: cell-based; conditions: Homo sapiens; SF-295, CNS
[7] = system: LN18; assay: Viability (AlamarBlue), LN18; format: cell-based; conditions: Homo sapiens, LN-18; LN18, Glioma
Procedure: as §1

[8] = system: Akt/PKB phosphorylation in primary T-ALL tumors; assay: Akt/PKB phosphorylation in primary T-ALL tumors; format: cell-based, human; conditions: primary T-ALL tumors from four patients
Procedure: Cell lysates (from cell lines or thymocytes) were prepared on ice in M-PER Mammalian Protein Extraction reagent (Pierce) containing a cocktail of protease and phosphatase inhibitors as described in Swat, W. et al., Essential role of PI3 Kdelta and PI3 Kgamma in thymocyte survival, Blood 107, 2415-2422 (2006). Equal amounts of total protein from lysates were separated using SDS-PAGE, transferred to PVDF membrane (Immobilon-P, Millipore). Membranes were incubated overnight incubation with appropriate primary antibodies. Bound antibodies were visualized with HRP-conjugated secondary antibodies and ECL chemistry (SuperPico West, Pierce).

[9] = system: U251; assay: pAkt pathway inhibition, U251; format: cell-based; conditions: Homo sapiens, U-251; U251, Glioma

## CC(Nc1ncnc2[nH]cnc12)c1nc2cccc(Cl)c2c(=O)n1-c1ccccc1 (stereo not shown) [Compound A, 2-(1-(9H-purin-6-ylamino)ethyl)-5-chloro-3-phenylquinazolin-4(3H)-one]
[1]; IV 1 mg/kg
  clearance: 6.08 mL/min/kg
[1]; IV 1 mg/kg, read-out: Vz
  Vd: 0.891 L/kg
[1]; PO 1 mg/kg
  AUC: 4450 ng·h/mL
  Cmax: 1040 ng/mL
  Tmax: 2.3 h
[2]
  EC50: 897 nM
[3]
  EC50: ~270 nM and 270 nM
[4]
  GI50: 2500 nM
[5]
  CD3 levels: reduced
[5]; Day 4
  leukemia cells: about 5.6 million
[5]; Day 7
  leukemia cells: about 4.2 million
[5]; by Day 4
  white blood cells: significant reduction
[6]
  EC50: 162 nM
[7]
  GI50: 3500 nM
[8]
  Akt/PKB phosphorylation: inhibition
[9]
  EC50: 2250 nM
